Test systems include A549 NSCLC; BT-549 breast; CAKI-1 renal; HCC-2998 colon; HCT-15 colon; HL-60(TB) leukemia; HOP-62 NSCLC; HT29 colon; K-562 leukemia; KM12 colon; M14 melanoma; NCI-H23 lung; NCI-H522 lung; NCI/ADR-RES ovarian; PC-3 prostate; SF-295 CNS; SF-539 CNS; SK-MEL-2 melanoma; T-47D breast.
Common to all, as to assay: inhibition of tumour cell growth, NCI panel, 48 h

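Five compound concentrations were applied to cells in 96-well plates for 48 hours; endpoints were derived by simple linear interpolation of the resulting dose-response curve. At the TGI there is no net growth.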

Consider `CCOC(=O)c1cc(C#N)[nH]c1-c1ccsc1`, for which the TGI was greater than 100 µM in the assay with A549 NSCLC; greater than 100 µM with BT-549 breast; greater than 100 µM in the assay on CAKI-1 renal; greater than 100 µM with HCC-2998 colon; greater than 100 µM in the assay with HCT-15 colon; 41.5 µM in the assay on HL-60(TB) leukemia. For the same molecule, the TGI is greater than 100 µM in the assay with HOP-62 NSCLC; 95.1 µM in the assay with HT29 colon; 93 µM in the assay on K-562 leukemia; 69.6 µM in the assay with KM12 colon; greater than 100 µM with M14 melanoma; greater than 100 µM in the assay on NCI-H23 lung. The TGI in the assay on NCI-H522 lung was 90.2 µM; in the assay on NCI/ADR-RES ovarian, 94.9 µM; with PC-3 prostate it was 70.4 µM; in the assay with SF-295 CNS, greater than 100 µM; in the assay with SF-539 CNS it was 77.1 µM; in the assay on SK-MEL-2 melanoma, greater than 100 µM.

`Cc1cn(C2CC(NC(=NCC3OC(n4cnc5c(N)ncnc54)CC3O)NC#N)C(CO)O2)c(=O)[nH]c1=O` (centres undefined): the TGI in the assay with A549 NSCLC, in the assay on CAKI-1 renal, in the assay with HCC-2998 colon, in the assay on HCT-15 colon, with HL-60(TB) leukemia and in the assay on HOP-62 NSCLC was greater than 100 µM in each case. The TGI with HT29 colon, in the assay with K-562 leukemia, in the assay on KM12 colon, in the assay with M14 melanoma, with NCI-H23 lung and with NCI-H522 lung was greater than 100 µM in each case. Moreover, the TGI with NCI/ADR-RES ovarian, in the assay with PC-3 prostate, with SF-295 CNS, in the assay with SF-539 CNS, with SK-MEL-2 melanoma and in the assay with T-47D breast was greater than 100 µM each time.

With `CCO/C=C(\C(=O)OC)S(=O)(=O)c1ccc(C)cc1`, the TGI in the assay with A549 NSCLC, with HCC-2998 colon, in the assay with HCT-15 colon, with HL-60(TB) leukemia, in the assay on HOP-62 NSCLC and with HT29 colon was greater than 100 µM in each case. Besides, the TGI in the assay on K-562 leukemia, in the assay with KM12 colon, in the assay on M14 melanoma, in the assay with NCI-H23 lung, with NCI-H522 lung and with NCI/ADR-RES ovarian was greater than 100 µM each time. Further, the TGI with PC-3 prostate, in the assay with SF-295 CNS, in the assay with SF-539 CNS, with SK-MEL-2 melanoma and with T-47D breast was greater than 100 µM in each case.

Take `O=C(/C=C/c1ccc2c(c1)OCO2)CC(=O)/C=C/c1ccc2c(c1)OCO2`: the TGI in the assay on A549 NSCLC, in the assay on CAKI-1 renal, in the assay on HCC-2998 colon, in the assay with HCT-15 colon, in the assay with HL-60(TB) leukemia and in the assay with HOP-62 NSCLC was greater than 100 µM each time. The TGI with HT29 colon was greater than 100 µM; in the assay on K-562 leukemia, greater than 100 µM; in the assay on KM12 colon, 10.8 µM; with M14 melanoma it was greater than 100 µM; in the assay with NCI-H23 lung it was greater than 100 µM; with NCI-H522 lung, greater than 100 µM. For the same molecule, the TGI with NCI/ADR-RES ovarian, with PC-3 prostate, in the assay with SF-295 CNS, in the assay with SF-539 CNS, with SK-MEL-2 melanoma and in the assay on T-47D breast was greater than 100 µM throughout.

With `O=C1C=C2CC[C@H]3[C@@H]4CC[C@H](OC(=O)c5cccc6cc7ccccc7nc56)[C@H]4CC[C@@H]3[C@H]2CC1`, the TGI in the assay on A549 NSCLC, in the assay on BT-549 breast, in the assay with HCT-15 colon, in the assay on HL-60(TB) leukemia, in the assay with HOP-62 NSCLC and in the assay on HT29 colon was greater than 100 µM in each case. The TGI is greater than 100 µM with K-562 leukemia; greater than 100 µM in the assay with KM12 colon; greater than 100 µM in the assay with M14 melanoma; greater than 100 µM in the assay on NCI-H23 lung; 69.2 µM with NCI-H522 lung; greater than 100 µM in the assay with NCI/ADR-RES ovarian. Also, the TGI in the assay with PC-3 prostate, in the assay with SF-295 CNS, with SF-539 CNS and in the assay on SK-MEL-2 melanoma was greater than 100 µM throughout.

Regarding `O=C1OC(CS(=O)(=O)c2ccccc2)CC1O` (centres undefined), the TGI with A549 NSCLC, in the assay with BT-549 breast, with CAKI-1 renal, with HCC-2998 colon, in the assay on HCT-15 colon and in the assay with HOP-62 NSCLC was greater than 100 µM each time. The TGI in the assay on HT29 colon, with K-562 leukemia, in the assay on KM12 colon, with M14 melanoma, in the assay with NCI-H23 lung and in the assay with NCI-H522 lung was greater than 100 µM throughout. Besides, the TGI in the assay on NCI/ADR-RES ovarian, in the assay on PC-3 prostate, in the assay with SF-295 CNS, in the assay on SF-539 CNS and in the assay with SK-MEL-2 melanoma was greater than 100 µM in each case.

Turning to `O=C(Nc1ccc(Cl)cc1)NS(=O)(=O)c1c(-c2ccccc2)oc2ccccc2c1=O`, the TGI in the assay with A549 NSCLC, in the assay with CAKI-1 renal, with HCC-2998 colon, with HCT-15 colon, with HL-60(TB) leukemia and in the assay on HOP-62 NSCLC was greater than 100 µM each time. The TGI was greater than 100 µM in the assay on HT29 colon; greater than 100 µM with K-562 leukemia; greater than 100 µM in the assay with KM12 colon; greater than 100 µM in the assay on NCI-H23 lung; 31.2 µM with NCI-H522 lung; greater than 100 µM with NCI/ADR-RES ovarian. The TGI in the assay on PC-3 prostate, with SF-295 CNS, with SF-539 CNS, in the assay with SK-MEL-2 melanoma and in the assay on T-47D breast was greater than 100 µM throughout.

For the molecule `CC(C)N1[C@@H]2CCCC[C@H]2N(C(C)C)P1(=O)C(=O)/C=C/c1ccccc1`, the TGI in the assay on A549 NSCLC was determined as 12.4 µM; with BT-549 breast, 14.5 µM; in the assay on CAKI-1 renal, 7.31 µM; with HCC-2998 colon it was 5.33 µM; in the assay with HCT-15 colon, 4.14 µM; with HL-60(TB) leukemia, 4.84 µM. Further, the TGI is 13.7 µM in the assay on HOP-62 NSCLC; 8.03 µM in the assay on HT29 colon; greater than 100 µM with K-562 leukemia; 10.2 µM in the assay with KM12 colon; 5.49 µM with M14 melanoma; 6.42 µM in the assay with NCI-H23 lung. Besides, the TGI is 3.26 µM in the assay with NCI-H522 lung; 4.81 µM in the assay with NCI/ADR-RES ovarian; 15.2 µM in the assay with PC-3 prostate; 23.4 µM in the assay with SF-295 CNS; 6.34 µM with SF-539 CNS; 8.17 µM in the assay on SK-MEL-2 melanoma.

The record behind these values is PubChem BioAssay (NCI).
